In ChEMBL document CHEMBL4765295, “Synthesis, pharmacological profile and 2D-QSAR studies of curcumin-amino acid conjugates as potential drug candidates” (Eur J Med Chem, 2020):
In brackets after ≈: the same amount, converted by molar mass. Several values for one entry are separate records, joined by “and”; a condition that tells them apart may be missing. Equal entries are not always repeated.

Legend:
Rattus norvegicus [1] = assay: Anti-inflammatory activity in Wistar rat assessed as inhibition of carrageenan-induced paw edema at 10 mg/kg, ip pretreated for 1 hr followed by carrageenan challenge and measured after 2 hr relative to control (reference value: 0.00 +/-0.03 %); assay type: functional; details: time 3 hrs
Rattus norvegicus [2] = assay: Anti-inflammatory activity in Wistar rat assessed as inhibition of carrageenan-induced paw edema at 10 mg/kg, ip pretreated for 1 hr followed by carrageenan challenge and measured after 3 hr relative to control (reference value: 0.00 +/-0.1 %); assay type: functional; details: time 4 hrs
Rattus norvegicus [3] = assay: Anti-inflammatory activity in Wistar rat assessed as inhibition of carrageenan-induced paw edema at 10 mg/kg, ip pretreated for 1 hr followed by carrageenan challenge and measured after 1 hr relative to control (reference value: 0.00 +/-0.02 %); assay type: functional; details: time 2 hrs
Rattus norvegicus [4] = assay: Antiinflammatory activity in Wistar rat model of carrageenan-induced paw edema assessed as reduction in thickness of paw edema at 10 mg/kg, ip pretreated for 1 hr followed by carrageenan challenge and measured after 24 hrs (reference value: 0.83 +/-0.08 mm); assay type: functional; details: time 25 hrs
Rattus norvegicus [5] = assay: Anti-inflammatory activity in Wistar rat assessed as inhibition of carrageenan-induced paw edema at 10 mg/kg, ip pretreated for 1 hr followed by carrageenan challenge and measured after 4 hr relative to control (reference value: 0.00 +/-0.4 %); assay type: functional; details: time 5 hrs
Rattus norvegicus [6] = assay: Anti-inflammatory activity in Wistar rat assessed as inhibition of carrageenan-induced paw edema at 10 mg/kg, ip pretreated for 1 hr followed by carrageenan challenge and measured after 24 hr relative to control (reference value: 0.00 +/-0.3 %); assay type: functional; details: time 25 hrs
Rattus norvegicus [7] = assay: Antiinflammatory activity in Wistar rat model of carrageenan-induced paw edema assessed as reduction in thickness of paw edema at 10 mg/kg, ip pretreated for 1 hr followed by carrageenan challenge and measured after 3 hrs (reference value: 1.79 +/-0.07 mm); assay type: functional; details: time 4 hrs
Splenocyte [8] = assay: Immunomodulatory activity in Swiss albino mouse splenocytes assessed as cell viability at 10 uM by measuring stimulation index incubated for 72 hrs in presence of mitogenic stimulus phytohaemagglutinin by MTT assay (reference value: 1.00 +/- 0.24); assay type: functional
Rattus norvegicus [9] = assay: Antiinflammatory activity in Wistar rat model of carrageenan-induced paw edema assessed as reduction in thickness of paw edema at 10 mg/kg, ip pretreated for 1 hr followed by carrageenan challenge and measured after 4 hrs (reference value: 1.40 +/-0.10 mm); assay type: functional; details: time 5 hrs
Salmonella typhimurium = assay: Antibacterial activity against Salmonella typhimurium ATCC 19430 incubated for 18 hrs by agar dilution assay; assay type: functional, Salmonella enterica subsp. enterica serovar Typhimurium; details: Salmonella enterica
Rattus norvegicus [10] = assay: Antiinflammatory activity in Wistar rat model of carrageenan-induced paw edema assessed as reduction in thickness of paw edema at 10 mg/kg, ip pretreated for 1 hr followed by carrageenan challenge and measured after 2 hrs (reference value: 2.06 +/-0.09 mm); assay type: functional; details: time 3 hrs
Rattus norvegicus [11] = assay: Anti-inflammatory activity in Wistar rat assessed as inhibition of carrageenan-induced paw edema at 10 mg/kg, ip pretreated for 1 hr followed by carrageenan challenge and measured after 4 hr relative to indomethacin; assay type: functional; details: time 5 hrs
Rattus norvegicus [12] = assay: Antiinflammatory activity in Wistar rat model of carrageenan-induced paw edema assessed as reduction in thickness of paw edema at 10 mg/kg, ip pretreated for 1 hr followed by carrageenan challenge and measured after 1 hr (reference value: 2.41 +/-0.05 mm); assay type: functional; details: time 1 hr after carrageenan
Streptococcus pyogenes = assay: Antibacterial activity against Streptococcus pyogenes ATCC 19615 incubated for 18 hrs by agar dilution method; assay type: functional
Pseudomonas aeruginosa = assay: Antibacterial activity against Pseudomonas aeruginosa ATCC 27853 incubated for 18 hrs by agar dilution assay; assay type: functional
Candida albicans = assay: Antifungal activity against Candida albicans incubated for 18 to 24 hrs by CLSI method; assay type: functional; details: time 18-24 hrs
Splenocyte [13] = assay: Immunomodulatory activity in Swiss albino mouse splenocytes assessed as cell viability at 10 uM by measuring inhibition of stimulation index incubated for 72 hrs in presence of mitogenic stimulus phytohaemagglutinin by MTT assay relative to indomethacin; assay type: functional; details: read-out: Activity
Staphylococcus aureus = assay: Antibacterial activity against Staphylococcus aureus ATCC 25923 incubated for 18 hrs by agar dilution method; assay type: functional
Peritoneal macrophage [14] = assay: Antiinflammatory activity in […] mouse Peritoneal macrophages assessed as reduction in LPS-induced NO production by measuring reduction in stimulation index at 10 uM preincubated for 1 hr followed by LPS stimulation measured after 24 hrs by Griess method (reference value: 27.31 +/- 2.56 uM); assay type: functional; details: time 25 hrs
Peritoneal macrophage [15] = assay: Antiinflammatory activity in […] mouse Peritoneal macrophages assessed as inhibition of LPS-induced NO production at 10 uM preincubated for 1 hr followed by LPS stimulation measured after 24 hrs by Griess method relative to control (reference value: 0.0 %); assay type: functional; parameters: scale not given: the % may be the effect or the level left; details: time 25 hrs

| SMILES | inhibition in vivo at 10 mg/kg (Rattus norvegicus [1]) | inhibition in vivo at 10 mg/kg (Rattus norvegicus [2]) | inhibition in vivo at 10 mg/kg (Rattus norvegicus [3]) | Activity (Rattus norvegicus [4]) | inhibition in vivo at 10 mg/kg (Rattus norvegicus [5]) | inhibition in vivo at 10 mg/kg (Rattus norvegicus [6]) | Activity (Rattus norvegicus [7]) | Activity_index (Splenocyte [8]) | Activity (Rattus norvegicus [9]) | MIC (Salmonella typhimurium) | Activity (Rattus norvegicus [10]) | inhibition in vivo at 10 mg/kg (Rattus norvegicus [11]) | Activity (Rattus norvegicus [12]) | MIC (Streptococcus pyogenes) | MIC (Pseudomonas aeruginosa) | MIC (Candida albicans) | viability at 10 µM (Splenocyte [13]) | MIC (Staphylococcus aureus) | Activity (Peritoneal macrophage [14]) | Activity (Peritoneal macrophage [15]) |
| --- | --- | --- | --- | --- | --- | --- | --- | --- | --- | --- | --- | --- | --- | --- | --- | --- | --- | --- | --- | --- |
| COc1cc(/C=C/C(=O)/C=C(O)/C=C/c2ccc(OC(=O)[C@H](Cc3ccccc3)NC(=O)OC(C)(C)C)c(OC)c2)ccc1OC(=O)[C@H](Cc1ccccc1)NC(=O)OC(C)(C)C | 44% | 53% | 39% | 0.41 mm | 59% | 51% | 0.85 mm | 2.56 | 0.58 mm | 0.25 µg/mL and 0.29 µM | 1.16 mm | 68% | 1.47 mm | 0.125 µg/mL and 0.145 µM | 1 µg/mL and 1.16 µM | 1 µg/mL and 1.16 µM | 47.2% | 0.25 µg/mL and 0.29 µM |  |  |
| COc1cc(/C=C/C(=O)/C=C(O)/C=C/c2ccc(OC(=O)[C@@H](NC(=O)OCc3ccccc3)C(C)C)c(OC)c2)ccc1OC(=O)[C@@H](NC(=O)OCc1ccccc1)C(C)C | 20% | 19% | 51% | 0.81 mm | 12% | 2% | 1.45 mm | 2.87 | 1.23 mm | 0.125 µg/mL and 0.15 µM | 1.65 mm | 14% | 1.17 mm | 0.5 µg/mL and 0.599 µM | 0.25 µg/mL and 0.299 µM | 1 µg/mL and 1.2 µM | 42.1% | 0.125 µg/mL and 0.15 µM | 25.76 µM | 5.68% |
| C[C@@H]1[C@H](O)[C@@H](C)/C=C/C=C/C=C/C=C/C=C/C=C/C=C/[C@H](O[C@@H]2O[C@H](C)[C@@H](O)[C@H](N)[C@@H]2O)C[C@@H]2O[C@](O)(C[C@@H](O)C[C@@H](O)[C@H](O)CC[C@@H](O)C[C@@H](O)CC(=O)O[C@H]1C)C[C@H](O)[C@H]2C(=O)O [AMPHOTERICIN B] |  |  |  |  |  |  |  |  |  |  |  |  |  |  |  | 0.39 µg/mL and 0.422 µM |  |  |  |  |
| O=C(O)c1cn(C2CC2)c2cc(N3CCNCC3)c(F)cc2c1=O [CIPROFLOXACIN] |  |  |  |  |  |  |  |  |  | 2.4 µg/mL (≈ 7.24 µM) |  |  |  |  | 4.8 µg/mL (≈ 14.5 µM) |  |  |  |  |  |
| CCn1cc(C(=O)O)c(=O)c2cc(F)c(N3CCNCC3)cc21 [NORFLOXACIN] |  |  |  |  |  |  |  |  |  | 2.4 µg/mL (≈ 7.52 µM) |  |  |  |  | 4.8 µg/mL and 15000 µM |  |  |  |  |  |
